Experimental data reported in US12428415B2, “Matriptase 2 inhibitors and uses thereof” (Disc Medicine, Inc., priority 2018, dated 2025).
Where two headings read alike, the source gives them in different places.

Target: T1, Human Recombinant Matriptase 2 (Homo sapiens, UniProt Q8IU80)
T1 construct: purchased Enzo Life Sciences (an in-house preparation was also used) ALX-201-752-1
T1 sequence (Q8IU80 1-811): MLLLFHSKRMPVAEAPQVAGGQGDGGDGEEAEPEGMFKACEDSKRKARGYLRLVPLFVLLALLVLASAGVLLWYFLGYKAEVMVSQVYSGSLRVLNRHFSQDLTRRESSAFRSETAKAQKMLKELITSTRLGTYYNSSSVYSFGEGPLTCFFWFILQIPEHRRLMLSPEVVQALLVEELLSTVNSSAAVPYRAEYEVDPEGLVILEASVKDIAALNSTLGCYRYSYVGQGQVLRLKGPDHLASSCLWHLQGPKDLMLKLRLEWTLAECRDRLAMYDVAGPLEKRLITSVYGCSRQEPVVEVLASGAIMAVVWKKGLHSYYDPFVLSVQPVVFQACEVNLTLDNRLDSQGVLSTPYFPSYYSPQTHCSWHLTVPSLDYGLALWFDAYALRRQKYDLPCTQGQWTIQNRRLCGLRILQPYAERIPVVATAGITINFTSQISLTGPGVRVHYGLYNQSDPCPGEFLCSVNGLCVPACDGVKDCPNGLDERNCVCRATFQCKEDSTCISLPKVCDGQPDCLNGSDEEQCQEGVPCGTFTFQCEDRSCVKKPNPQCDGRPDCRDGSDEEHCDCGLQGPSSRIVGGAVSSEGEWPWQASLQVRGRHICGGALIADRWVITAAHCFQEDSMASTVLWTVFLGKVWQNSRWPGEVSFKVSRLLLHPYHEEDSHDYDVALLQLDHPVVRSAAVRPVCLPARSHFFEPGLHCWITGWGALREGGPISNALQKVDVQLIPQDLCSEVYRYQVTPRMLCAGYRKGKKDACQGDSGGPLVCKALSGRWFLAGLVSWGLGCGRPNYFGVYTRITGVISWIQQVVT
Assay: Matriptase 2 fluorescence based inhibition assay, Method A (100 mM TRIS pH 9, 1 mg/mL BSA)
Assay type: biochemical
Conditions: read-out: Mar-2 % inhibition at 1 uM
Method in brief: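 Enzyme (7 nM commercial or 15 nM in-house) preincubated 30 min with compound in 100 mM TRIS pH 9, 1 mg/mL BSA, 1% DMSO at 25° C. Boc-Gln-Ala-Arg-AMC substrate at 100 μM; fluorescence (Ex 360/Em 480 nm) read 60 min later. Screened at 1 and 10 μM; IC50 from variable-slope sigmoidal fit.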

Compound	inhibition at 1 µM (at 1 uM, Assay Used = A)	inhibition at 1 µM (1 uM, Assay Used A)
CCNC(=O)c1ccc(Cn2c(C(=O)NC3CCC(C)CC3)cc3ccc(C(=N)N)cc32)cc1 (centres unmarked) [Compound I-221, 6-Carbamimidoyl-1-(4-(ethylcarbamoyl)benzyl)-N-(4-methylcyclohexyl)-1H-indole-2-carboxamide]	0 to 25%	–
N=C(N)c1ccc2cc(C(=O)N3CCC(CCN)CC3)n(Cc3ccc(NC(=O)CCCN)cc3)c2c1 [Compound I-372]	25 to 50%	–
COc1ccc(CCn2c(C(=O)N3CCC(CCN)CC3)cc3ccc(C(=N)N)cc32)cc1 [Compound I-302]	25 to 50%	–
CC(C)(C)c1ccc(Cn2c(C(=O)NC3CCC(N)CC3)cc3ccc(C(=N)N)cc32)cc1 (centres unmarked) [Compound I-17]	–	50 to 75%
N=C(N)c1ccc2cc(C(=O)N[C@H]3c4ccccc4C[C@H]3O)n(Cc3ccc(C(N)=O)cc3)c2c1 [Compound I-204]	0 to 25%	–
N=C(N)c1ccc2cc(C(=O)Nc3ccc(N4CCCC4)c(F)c3)n(Cc3ccc(C(N)=O)cc3)c2c1 [Compound I-104]	–	0 to 25%
N=C(N)c1ccc2cc(C(=O)NC3CCC(F)(F)CC3)n(Cc3ccc(C(N)=O)cc3)c2c1 [Compound I-190]	–	0 to 25%
CC(C)c1ccc(Cn2c(C(=O)N3CCC(CF)CC3)cc3ccc(C(=N)N)cc32)cc1 [Compound I-297]	0 to 25%	–
N=C(NC(=O)OC1CCCCC1)c1ccc2cc(C(=O)Nc3cccc(N4CCCC4)c3)n(Cc3ccc(C(N)=O)cc3)c2c1 [Compound I-164]	–	0 to 25%
N=C(N)c1ccc2cc(C(=O)N3CCCC(F)(F)C3)n(Cc3ccc(-c4ccccc4)cc3)c2c1 [Compound I-307]	0 to 25%	–
CCCOC(=O)NC(=N)c1ccc2cc(C(=O)Nc3cccc(N4CCCC4)c3)n(Cc3ccc(C(N)=O)cc3)c2c1 [Compound I-162]	–	0 to 25%
N=C(N)c1ccc2cc(C(=O)Nc3ccc(N4CCC(F)(F)C4)cc3)n(Cc3ccc(C(N)=O)cc3)c2c1 [Compound I-97]	–	25 to 50%
N=C(N)c1ccc2cc(C(=O)N3CC[C@H](F)C3)n(Cc3ccc(-c4ccccc4)cc3)c2c1 [Compound I-309]	0 to 25%	–
N=C(N)c1ccc2cc(C(=O)N3CCC(CCN)CC3)n(CCc3ccc(F)cc3)c2c1 [Compound I-301]	25 to 50%	–
N=C(N)c1ccc2cc(C(=O)NCC3CCOCC3)n(Cc3ccc(C(N)=O)cc3)c2c1 [Compound I-192]	–	0 to 25%
C[C@H]1CC[C@H](NC(=O)c2cc3ccc(C(=N)N)cc3n2Cc2ccc(C(N)=O)cc2)CC1 [Compound I-186]	–	0 to 25%
CC1CCC(NC(=O)c2cc3ccc(C(=N)N)cc3n2Cc2ccc(C(=O)NCCO)cc2)CC1 (centres unmarked) [Compound I-223, 6-Carbamimidoyl-1-(4-((2-hydroxyethyl)carbamoyl)benzyl)-N-(4-methylcyclohexyl)-1H-indole-2-carboxamide]	0 to 25%	–
N=C(N)c1ccc2cc(C(=O)Nc3ccc4[nH]cnc4c3)n(Cc3ccc(C(N)=O)cc3)c2c1 [Compound I-74]	–	0 to 25%
N=C(N)c1ccc2cc(C(=O)Nc3ccc(F)nc3)n(Cc3ccc(C(N)=O)cc3)c2c1 [Compound I-173]	–	0 to 25%
CN(CC1CCCCC1)C(=O)c1cc2ccc(C(=N)N)cc2n1Cc1ccc(C(N)=O)cc1 [Compound I-232, 6-Carbamimidoyl-1-(4-carbamoylbenzyl)-N-(cyclohexylmethyl)-N-methyl-1H-indole-2-carboxamide]	0 to 25%	–
CC1CCC(NC(=O)c2cc3ccc(C(=N)N)cc3n2CCS(=O)(=O)c2ccccc2)CC1 (centres unmarked) [Compound I-46]	–	0 to 25%
N=C(N)c1ccc2cc(C(=O)N3CCC(F)CC3)n(Cc3ccc(OC(F)(F)F)cc3)c2c1 [Compound I-289]	0 to 25%	–
N=C(N)c1ccc2cc(C(=O)N3CCC(CCN)CC3)n(CCS(=O)(=O)c3ccccc3)c2c1 [Compound I-337]	0 to 25%	–
